Laboratory results taken from patent publication US20090060984A1, “ANIONIC SURFACTANTS LETHAL TO GRAM-POSITIVE BACTERIA” (priority 2007, published 2009).
Values joined by “and” are separate entries in the source; they are usually repeats but may differ in a detail not shown here. Equal entries are not always repeated. Where two headings read alike, the source gives them in different places.

Columns and labels:
E. coli [1] = assay type: cell-based, Escherichia coli; details: 24 h contact time
Description: Escherichia coli ATCC 11229 (Culti-loops, Remel Europe, Dartford, Kent, UK) and Pseudomonas aeruginosa ATCC 15442 (Cuti-loops, Remel Europe, Dartford, Kent, UK) were selected as model Gram-negative organisms for the challenge testing of the antimicrobial coatings. Each bacterial strain was streaked for isolated colonies on Tryptic Soy Agar (TSA) plates (Difco, Becton Dickinson, Sparks, Md., U.S.A.) and incubated at 37° C. for 12 to 18 hours. Broth cultures were prepared by first picking 1-2 isolated colonies from TSA plates and inoculating 5 mL Tryptic Soy Broth (TSB; Difco, Becton Dickinson, Sparks, Md., U.S.A.) in a 16 mm test tube. This culture was grown in a shaking water bath at 150 RPM for 8 hours at 37° C. After the eight hours, 125 μL of this culture was added to 50 mL of TSB in a side-arm Klett flask and grown for approximately 8 hours in shaking water bath (150 RPM) at 37° C. The bacterial broths were grown to an A590 of 1.2-1.5, which correlated to approximately 10^9 CFU (colony forming units)/mL. 25 mL of this broth were transferred to a sterile 30 mL Oakridge tube and centrifuged at 12,000×g for 10 minutes at 4° C. (Sorval SS34 rotor) to pelletize the bacteria. The bacterial pellet was washed once and resuspended in 25 mL of phosphate buffer solution (PBS; BBL, FTA Hemaglutination Buffer, Becton Dickinson, Sparks, Md., U.S.A.). The suspension was diluted with PBS to achieve the target range of 10^5-10^6 CFU/mL and used to inoculate the slides containing antibacterial coatings.
Xylene/methanol (5:1 by weight) is used to dissolve the silver surfactants to facilitate homogeneously mixing with the alkyd resin composition.
A minus sign (−) denotes no growth, a plus sign (+) denotes confluent growth, and a capital P (P) denotes […].
Xylene/methanol (5:1 by weight) is used to dissolve the silver surfactants to facilitate homogeneously mixing with the acrylic resin composition.
The same laboratory experimental solvent based acrylic paint described in Example 34 is used to challenge E. coli by adding various levels of the invention silver anionic surfactants as described in Example 34.
A commercially available 2K epoxy resin paint is obtained from a local paint store (Sherwin Williams High Solids Epoxy Tile Clad HS; Part A B62WC11; Part B B60VZ75, The Sherwin Williams Company) and the same silver anionic surfactants described in Example 35 are used to prepare test coatings on microscope slides containing various levels of silver ion. These surfactants are dissolved in xylene/methanol (5:1 by weight) to facilitate their quantitative addition to the coating mixture.

[2] = tested on: Staphylococcus aureus ATCC 6538;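 also: bacterial suspension pipetted onto each coated surface, then recovered in PBS, serially diluted and spread on TSA plates to count viable colonies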
Description: The antimicrobial activities of the coatings on coupons and slides are tested against both Gram-positive (Staphylococcus aureus ATCC 6538) and Gram-negative (Escherichia coli ATCC 11229) bacteria. The following set of steps are executed over a four day period, in order to evaluate the coatings for antimicrobial activity.
(1) Three colonies are picked from a Petri dish that contains refrigerator stock of E. coli and S. aureus. Each of the colonies is placed into a separate test tube of 5 mL of TSB (tryptic soy broth); (2) the TSB cultures are incubated in a heated shaker; the culture is grown overnight at 37° C. while shaking at 175 rpm.
(1) 500 μL (0.5 mL) of FINAL E. coli bacteria are placed onto the center of each sterilized coating (24 hour); the same is done with S. aureus; (2) the coupons/coatings are stored for 24 hours in sealed pan by stacking Petri dishes on top of one another; (3) 200 mL of sterile water is added to the bottom of each pan; each pan is enclosed with clear saran wrap and aluminum foil; the Pyrex pans containing the coatings are incubated at room temperature for 24 hours; all inoculations of the coatings are performed in the same laminar flow hood as where the sterilized slides are placed into sterile Petri dishes; the prepared bacterial suspension (0.5 ml) is directly pipetted onto the coating of the slide; the spreading of the innoculum across the surface of the coating is observed and noted.
(1) 500 μL (0.5 mL) of FINAL E. coli bacteria is placed onto the center of each sterilized coating (0 hour); the same is done with S. aureus; (2) after bacteria are added to the 0 hour coatings, each Petri dish (containing the coating) is submerged with 25 mL of PBS; this immersion stops the viable bacteria from continuing to grow; (3) 100 μL of fluid is removed from coatings dish and placed in the middle of a previously labeled TSA plate; this is done to both agar plates labeled with −1 concentration; before removing the fluid, the surface of the coupon is scratched with a sterile loop to activate movement of bacteria; (4) “hockey sticks” are sterilized with ethanol and flame, to spread solution thoroughly; (5) the concentration of bacteria is diluted by removing 500 μL of the fluid in the coupon dish and placing it into a test tube with 4.5 mL of PBS; this solution is diluted in duplicate by removing 100 μL of the fluid and spreading into TSA plates labeled −2; (6) sterilized “hockey sticks” are used to spread solution thoroughly; (7) 500 μL of fluid from 1st tube prepared in step 5 is removed and placed into 4.5 mL of PBS; this dilution is mixed and 100 μL is removed in duplicate and placed into two new TSA plates labeled −3; (8) sterilized “hockey sticks” are used to spread these dilutions thoroughly; (9) steps 1-8 are repeated for each of the coupons or slides.

E. coli [3] = details: 24 h contact time
Description: PU formulated at a TDI: PPG mole ratio of 1.5:1 are post treated with water.

[4] = acetate sprayed with 0.06% w/w AgAOT/isopropanol, 0 h contact time
[5] = acetate sprayed with 0.06% w/w AgAOT/isopropanol, 24 h contact time
[6] = cotton sprayed with 0.06% w/w AgAOT/isopropanol, 0 h contact time
[7] = cotton sprayed with 0.06% w/w AgAOT/isopropanol, 24 h contact time
[8] = linen sprayed with 0.06% w/w AgAOT/isopropanol, 24 h contact time
[9] = metal plate sprayed with 0.06% Ag+ AgAOT solution, 24 h contact time
[10] = polyester sprayed with 0.06% w/w AgAOT/isopropanol, 0 h contact time
[11] = polyester sprayed with 0.06% w/w AgAOT/isopropanol, 24 h contact time
[12] = rayon sprayed with 0.06% w/w AgAOT/isopropanol, 24 h contact time
[13] = silk sprayed with 0.06% w/w AgAOT/isopropanol, 0 h contact time
[14] = silk sprayed with 0.24% w/w AgAOT/isopropanol, 24 h
[15] = vinyl tile sprayed with 0.06% Ag+ AgAOT solution, 24 h contact time
[16] = wall-paper sprayed with 0.06% Ag+ AgAOT solution, 24 h contact time

In the case of `CCCCC(CC)COC(=O)CC(C(=O)OCC(CC)CCCC)S(=O)(=O)[O-].[Ag+]` (stereo not drawn) [AgAOT], the “E. coli growth on coating” value (E. coli [1]; alkyd resin paint, 0.0012 weight % Ag in coating) is reported as “+”, the “E. coli growth on coating” value (E. coli [1]; alkyd resin paint, 0.003 weight % Ag in coating) is reported as “+” and the “E. coli growth on coating” value (E. coli [1]; alkyd resin paint, 0.012 weight % Ag in coating) is reported as “−”. The “E. coli growth on coating” value (E. coli [1]; alkyd resin paint, 0.03 weight % Ag in coating) was “−”, the “E. coli growth on coating” value (E. coli [1]; alkyd resin paint, 0.06 weight % Ag in coating) was “−” and the “E. coli growth on coating” value (E. coli [1]; alkyd resin paint, 0.12 weight % Ag in coating) was “−”. The “Silver level effective at preventing any growth” value (E. coli [1]; alkyd resin paint) was 0.012 % w/w, the “Silver level partially effective” value (E. coli [1]; alkyd resin paint) was 0.006 % w/w and the “E. coli growth on coating” value (E. coli [1]; commercial 2K epoxy paint, 0.0012 weight % Ag in coating) was “+”. The “E. coli growth on coating” value (E. coli [1]; commercial 2K epoxy paint, 0.003 weight % Ag in coating) was “+”, the “E. coli growth on coating” value (E. coli [1]; commercial 2K epoxy paint, 0.006 weight % Ag in coating) was “+” and the “E. coli growth on coating” value (E. coli [1]; commercial 2K epoxy paint, 0.012 weight % Ag in coating) was “+”. For the same compound, the “E. coli growth on coating” value (E. coli [1]; commercial 2K epoxy paint, 0.03 weight % Ag in coating) was “+”, the “E. coli growth on coating” value (E. coli [1]; commercial 2K epoxy paint, 0.06 weight % Ag in coating) was “−” and the “E. coli growth on coating” value (E. coli [1]; commercial 2K epoxy paint, 0.12 weight % Ag in coating) was “−”. The “Silver level giving complete inhibition of growth” value (E. coli [1]; commercial 2K epoxy paint) was 0.06 % w/w, the “E. coli growth on coating” value (E. coli [1]; commercial solvent borne acrylate paint, 0.0012 weight % Ag in coating) was “+” and the “E. coli growth on coating” value (E. coli [1]; commercial solvent borne acrylate paint, 0.003 weight % Ag in coating) was “+”. The “E. coli growth on coating” value (E. coli [1]; commercial solvent borne acrylate paint, 0.006 weight % Ag in coating) was “+”, the “E. coli growth on coating” value (E. coli [1]; commercial solvent borne acrylate paint, 0.012 weight % Ag in coating) was “+” and the “E. coli growth on coating” value (E. coli [1]; commercial solvent borne acrylate paint, 0.06 weight % Ag in coating) was “−”. The “E. coli growth on coating” value (E. coli [1]; commercial solvent borne acrylate paint, 0.12 weight % Ag in coating) was “−”, the “Silver level partially effective” value (E. coli [1]; commercial solvent borne acrylic paint) was 0.03 % Ag w/w and the “E. coli growth on coating” value (E. coli [1]; laboratory solvent borne acrylate paint, 0.0012 weight % Ag in coating) was “+”. For the same compound, the “E. coli growth on coating” value (E. coli [1]; laboratory solvent borne acrylate paint, 0.003 weight % Ag in coating) was “+”, the “E. coli growth on coating” value (E. coli [1]; laboratory solvent borne acrylate paint, 0.006 weight % Ag in coating) was “+” and the “E. coli growth on coating” value (E. coli [1]; laboratory solvent borne acrylate paint, 0.012 weight % Ag in coating) was “+”. The “E. coli growth on coating” value (E. coli [1]; laboratory solvent borne acrylate paint, 0.03 weight % Ag in coating) was “+”, the “E. coli growth on coating” value (E. coli [1]; laboratory solvent borne acrylate paint, 0.06 weight % Ag in coating) was “−” and the “E. coli growth on coating” value (E. coli [1]; laboratory solvent borne acrylate paint, 0.12 weight % Ag in coating) was “−”. The “S. aureus CFU/mL, Average” value [2, 4] was 0.00E+00 CFU/mL, the “S. aureus CFU/mL, Run #1-#4” value [2, 4] was 0.00E+00 CFU/mL and the “S. aureus CFU/mL, Average” value [2, 5] was 0.00E+00 CFU/mL. The “S. aureus CFU/mL, Run #1-#4” value [2, 5] was 0.00E+00 CFU/mL, the “S. aureus CFU/mL, Average” value [2, 6] was 0.00E+00 CFU/mL and the “S. aureus CFU/mL, Run #1-#4” value [2, 6] was 0.00E+00 CFU/mL. For the same compound, the “S. aureus CFU/mL, Average” value [2, 7] was 0.00E+00 CFU/mL, the “S. aureus CFU/mL, Run #1-#4” value [2, 7] was 0.00E+00 CFU/mL and the “S. aureus CFU/mL, Average” value ([2]; linen sprayed with 0.06% w/w AgAOT/isopropanol, 0 h contact time) was 1.24E+04 CFU/mL. The “S. aureus CFU/mL, Average” value [2, 8] was 0.00E+00 CFU/mL, the “S. aureus CFU/mL, Run #1-#4” value [2, 8] was 0.00E+00 CFU/mL and the “S. aureus CFU/mL, Avg” value ([2]; metal plate sprayed with 0.06% Ag+ AgAOT solution, 0 h contact time) was 3.90E+04 CFU/mL. For the same compound, the “S. aureus CFU/mL, Avg” value [2, 9] was 0.00E+00 CFU/mL, the “S. aureus CFU/mL, Run #1-#2” value [2, 9] was 0.00E+00 CFU/mL and the “S. aureus on sprayed household surfaces” value ([2]; metal plate, wall paper, vinyl tile, 0.06% silver solution, 24 h contact time) was “Complete killing is obtained for each of the surfaces”. For the same compound, the “S. aureus CFU/mL, Average” value [2, 10] was 0.00E+00 CFU/mL, the “S. aureus CFU/mL, Run #1-#4” value [2, 10] was 0.00E+00 CFU/mL and the “S. aureus CFU/mL, Average” value [2, 11] was 0.00E+00 CFU/mL. The “S. aureus CFU/mL, Run #1-#4” value [2, 11] was 0.00E+00 CFU/mL, the “S. aureus CFU/mL, Average” value ([2]; rayon sprayed with 0.06% w/w AgAOT/isopropanol, 0 h contact time) was 1.88E+02 CFU/mL and the “S. aureus CFU/mL, Average” value [2, 12] was 0.00E+00 CFU/mL. The “S. aureus CFU/mL, Run #1-#4” value [2, 12] was 0.00E+00 CFU/mL, the “Inhibition of S. aureus growth” value ([2]; rayon, 0.06% Ag AgAOT/isopropanol, 0 h contact time) was 3 orders of magnitude and the “S. aureus CFU/mL, Average” value [2, 13] was 1.45E+05 CFU/mL. For the same compound, the “S. aureus CFU/mL, Run #1-#2” value [2, 13] was 1.80E+05 CFU/mL and 1.10E+05 CFU/mL, the “S. aureus CFU/mL, Average” value ([2]; silk sprayed with 0.06% w/w AgAOT/isopropanol, 24 h contact time) was 9.13E+03 CFU/mL and the “S. aureus CFU/mL, Average” value ([2]; silk sprayed with 0.24% w/w AgAOT/isopropanol, 0 h) was 1.35E+05 CFU/mL. For the same compound, the “S. aureus CFU/mL, Average” value [2, 14] was 0.00E+00 CFU/mL, the “S. aureus CFU/mL, Run #1-#4” value [2, 14] was 0.00E+00 CFU/mL and the “S. aureus CFU/mL, Avg” value ([2]; vinyl tile sprayed with 0.06% Ag+ AgAOT solution, 0 h contact time) was 1.25E+05 CFU/mL. The “S. aureus CFU/mL, Avg” value [2, 15] was 0.00E+00 CFU/mL, the “S. aureus CFU/mL, Run #1-#2” value [2, 15] was 0.00E+00 CFU/mL and the “S. aureus CFU/mL, Avg” value ([2]; wall-paper sprayed with 0.06% Ag+ AgAOT solution, 0 h contact time) was 9.75E+04 CFU/mL. For the same compound, the “S. aureus CFU/mL, Avg” value [2, 16] was 0.00E+00 CFU/mL, the “S. aureus CFU/mL, Run #1-#2” value [2, 16] was 0.00E+00 CFU/mL and the “E. coli growth on PU composition” value (E. coli [3]; 0.01 weight % Ag in PU composition) was “+”. The “E. coli growth on PU composition” value (E. coli [3]; 0.03 weight % Ag in PU composition) was “+”, the “E. coli growth on PU composition” value (E. coli [3]; 0.10 weight % Ag in PU composition) was “+” and the “E. coli growth on PU composition” value (E. coli [3]; 0.30 weight % Ag in PU composition) was “−”. The “E. coli growth on PU composition” value (E. coli [3]; 1.0 weight % Ag in PU composition) was “−”, the “E. coli growth on PU composition” value (E. coli [3]; 3.0 weight % Ag in PU composition) was “−” and the “Silver level providing complete inhibition” value (E. coli [3]; PU composition) was 0.30 % w/w silver.
